{
  "source": "patent US8183248B2",
  "about": "“Substituted pyrrolo[2,3-d]pyrimidines and compositions as protein kinase inhibitors” (IRM LLC, priority 2005, dated 2012)",
  "key": {"[1]": {"molecular_target": "T1, wild type Bcr-abl (Ba/F3 cells) (Homo sapiens, UniProt P00519)", "T1 construct": "expressed in transfected cells; host or cells: Ba/F3 (murine pro-B cells); the other entry of the earlier key: BCR (P11274, Breakpoint cluster region protein)", "assay": "Proliferation of Ba/F3 cells expressing wild type Bcr-abl", "format": "cell-based", "procedure": "(§1) 32D-p210 cells are plated into 96 well TC plates at a density of 15,000 cells per well. 50 μL of two fold serial dilutions of the test compound (Cmax is 40 μM) are added to each well (STI571 is included as a positive control). After incubating the cells for 48 hours at 37° C., 5% CO2, 15 μL of MTT (Promega) is added to each well and the cells are incubated for an additional 5 hours. The optical density at 570 nm is quantified spectrophotometrically and IC50 values, the concentration of compound required for 50% inhibition, determined from a dose response curve.\n(§2) Compounds of the invention are tested for their antiproliferative effect on Ba/F3 cells expressing either wild type or the mutant forms of BCR-Abl (G250E, E255V, T315I, F317L, M351T) that confers resistance or diminished sensitivity to STI571. The antiproliferative effect of these compounds on the mutant-BCR-Abl expressing cells and on the non transformed cells were tested at 10, 3.3, 1.1 and 0.37 μM as described above (in media lacking IL3). The IC50 values of the compounds lacking toxicity on the untransformed cells were determined from the dose response curves obtained as describe above."}, "[2]": {"molecular_target": "T2, G250E Bcr-abl (Ba/F3 cells) (Homo sapiens, UniProt P00519, G250E)", "T2 construct": "expressed in transfected cells; host or cells: Ba/F3 (murine pro-B cells); the other entry of the earlier key: BCR (P11274, Breakpoint cluster region protein)", "assay": "Proliferation of Ba/F3 cells expressing G250E Bcr-abl", "format": "cell-based", "procedure": "as §1, §2"}, "PDGFR-β": {"molecular_target": "T3, PDGFR-β (Homo sapiens, UniProt P09619)", "T3 construct": "fused on or other part: P41212 (Transcription factor ETV6)", "T3 sequence (P09619 600-962 limits assumed, change not shown)": "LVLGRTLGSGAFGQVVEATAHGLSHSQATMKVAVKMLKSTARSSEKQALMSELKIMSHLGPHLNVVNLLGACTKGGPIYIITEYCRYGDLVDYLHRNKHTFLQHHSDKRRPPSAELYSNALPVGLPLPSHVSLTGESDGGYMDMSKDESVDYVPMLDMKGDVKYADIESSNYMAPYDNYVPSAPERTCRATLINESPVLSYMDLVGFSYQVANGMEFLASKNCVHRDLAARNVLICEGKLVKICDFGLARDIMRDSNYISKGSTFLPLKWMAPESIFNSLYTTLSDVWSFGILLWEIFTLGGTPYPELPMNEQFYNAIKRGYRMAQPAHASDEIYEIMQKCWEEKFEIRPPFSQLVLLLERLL", "assay": "PDGFRβ (Cellular Assay), Ba/F3-Tel-PDGFRβ proliferation", "format": "cell-based", "conditions": "read-out: IC50 for PDGFR-β"}, "BTK(h)": {"molecular_target": "T4, BTK(h) (Homo sapiens, UniProt Q06187)", "T4 construct": "purchased Upstate", "T4 sequence (Q06187 whole entry)": "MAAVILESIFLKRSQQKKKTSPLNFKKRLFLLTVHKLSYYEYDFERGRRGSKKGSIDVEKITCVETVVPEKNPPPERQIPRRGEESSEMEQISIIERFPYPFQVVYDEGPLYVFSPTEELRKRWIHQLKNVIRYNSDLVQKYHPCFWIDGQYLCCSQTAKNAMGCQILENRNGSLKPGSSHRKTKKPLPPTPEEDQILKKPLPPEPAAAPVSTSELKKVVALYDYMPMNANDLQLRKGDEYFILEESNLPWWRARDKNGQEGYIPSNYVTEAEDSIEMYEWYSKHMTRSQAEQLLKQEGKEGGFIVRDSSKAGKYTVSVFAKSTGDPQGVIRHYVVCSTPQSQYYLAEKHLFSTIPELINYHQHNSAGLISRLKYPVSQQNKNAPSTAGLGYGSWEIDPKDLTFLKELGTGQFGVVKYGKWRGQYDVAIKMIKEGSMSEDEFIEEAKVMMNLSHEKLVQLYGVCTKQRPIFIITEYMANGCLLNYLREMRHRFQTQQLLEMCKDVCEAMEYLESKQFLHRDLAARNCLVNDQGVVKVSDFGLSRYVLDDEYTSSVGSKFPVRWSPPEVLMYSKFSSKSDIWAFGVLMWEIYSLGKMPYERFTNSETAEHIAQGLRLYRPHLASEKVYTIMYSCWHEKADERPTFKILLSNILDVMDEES", "assay": "Upstate KinaseProfiler radio-enzymatic filter binding assay", "format": "biochemical", "conditions": "read-out: percentage inhibition BTK(h)", "procedure": "(§3) Compounds of the invention are assessed for their ability to inhibit individual members of the kinase panel. The compounds are tested in duplicates at a final concentration of 10 μM following this generic protocol. Note that the kinase buffer composition and the substrates vary for the different kinases included in the “Upstate KinaseProfiler™” panel. Kinase buffer (2.5 μL, 10×—containing MnCl2 when required), active kinase (0.001-0.01 Units; 2.5 μL), specific or Poly(Glu4-Tyr) peptide (5-500 μM or 0.01 mg/ml) in kinase buffer and kinase buffer (50 μM; 5 μL) are mixed in an eppendorf on ice. A Mg/ATP mix (10 μL; 67.5 (or 33.75) mM MgCl2, 450 (or 225) μM ATP and 1 μCi/μl [γ-^32P]-ATP (3000 Ci/mmol)) is added and the reaction is incubated at about 30° C. for about 10 minutes. The reaction mixture is spotted (20 μL) onto a 2 cm×2 cm P81 (phosphocellulose, for positively charged peptide substrates) or Whatman No. 1 (for Poly (Glu4-Tyr) peptide substrate) paper square. The assay squares are washed 4 times, for 5 minutes each, with 0.75% phosphoric acid and washed once with acetone for 5 minutes. The assay squares are transferred to a scintillation vial, 5 ml scintillation cocktail are added and ^32P incorporation (cpm) to the peptide substrate is quantified with a Beckman scintillation counter. Percentage inhibition is calculated for each reaction."}, "IKKβ(h)": {"molecular_target": "T5, IKKβ(h) (Homo sapiens, UniProt O14920)", "T5 construct": "purchased Upstate", "T5 sequence (O14920 whole entry)": "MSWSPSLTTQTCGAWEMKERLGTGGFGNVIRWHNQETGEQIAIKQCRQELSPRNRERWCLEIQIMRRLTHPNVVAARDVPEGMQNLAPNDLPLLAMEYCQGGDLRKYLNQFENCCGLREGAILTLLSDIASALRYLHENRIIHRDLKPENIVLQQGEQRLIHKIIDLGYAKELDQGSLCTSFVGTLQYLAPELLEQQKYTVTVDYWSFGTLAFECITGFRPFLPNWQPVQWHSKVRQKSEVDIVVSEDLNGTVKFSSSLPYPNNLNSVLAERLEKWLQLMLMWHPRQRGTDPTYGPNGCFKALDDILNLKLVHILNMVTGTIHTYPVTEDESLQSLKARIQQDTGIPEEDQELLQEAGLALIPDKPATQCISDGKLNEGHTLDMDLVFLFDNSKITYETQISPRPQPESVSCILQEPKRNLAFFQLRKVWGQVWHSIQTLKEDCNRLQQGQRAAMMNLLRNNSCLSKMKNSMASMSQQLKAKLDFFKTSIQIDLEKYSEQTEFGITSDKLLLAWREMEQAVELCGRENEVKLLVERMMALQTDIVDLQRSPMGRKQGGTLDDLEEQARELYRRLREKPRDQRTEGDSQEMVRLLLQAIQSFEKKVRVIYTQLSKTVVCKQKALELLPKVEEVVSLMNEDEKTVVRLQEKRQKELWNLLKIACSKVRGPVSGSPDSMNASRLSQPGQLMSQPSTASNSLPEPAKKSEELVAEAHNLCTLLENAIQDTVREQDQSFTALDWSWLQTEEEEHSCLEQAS", "assay": "Upstate KinaseProfiler radio-enzymatic filter binding assay", "format": "biochemical", "conditions": "read-out: percentage inhibition IKKβ(h)", "procedure": "as §3"}, "JNK1α1(h)": {"molecular_target": "T6, JNK1α1(h) (Homo sapiens, UniProt P45983)", "T6 construct": "purchased Upstate", "T6 sequence (P45983 1-384 isoform P45983-2)": "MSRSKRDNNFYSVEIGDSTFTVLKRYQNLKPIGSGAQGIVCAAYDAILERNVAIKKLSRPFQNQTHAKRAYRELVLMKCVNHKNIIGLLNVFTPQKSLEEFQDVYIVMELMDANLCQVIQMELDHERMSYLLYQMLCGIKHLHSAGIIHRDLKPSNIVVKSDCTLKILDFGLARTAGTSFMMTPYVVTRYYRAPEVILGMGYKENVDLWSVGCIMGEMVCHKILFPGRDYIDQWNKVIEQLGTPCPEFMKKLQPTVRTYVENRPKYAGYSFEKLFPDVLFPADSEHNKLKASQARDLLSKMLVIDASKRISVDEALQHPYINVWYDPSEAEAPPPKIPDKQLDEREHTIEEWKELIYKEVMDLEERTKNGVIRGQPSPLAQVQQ", "assay": "Upstate KinaseProfiler radio-enzymatic filter binding assay", "format": "biochemical", "conditions": "read-out: percentage inhibition JNK1α1(h)", "procedure": "as §3"}, "Lck(h)": {"molecular_target": "T7, Lck(h) (Homo sapiens, UniProt P06239)", "T7 construct": "purchased Upstate", "T7 sequence (P06239 whole entry)": "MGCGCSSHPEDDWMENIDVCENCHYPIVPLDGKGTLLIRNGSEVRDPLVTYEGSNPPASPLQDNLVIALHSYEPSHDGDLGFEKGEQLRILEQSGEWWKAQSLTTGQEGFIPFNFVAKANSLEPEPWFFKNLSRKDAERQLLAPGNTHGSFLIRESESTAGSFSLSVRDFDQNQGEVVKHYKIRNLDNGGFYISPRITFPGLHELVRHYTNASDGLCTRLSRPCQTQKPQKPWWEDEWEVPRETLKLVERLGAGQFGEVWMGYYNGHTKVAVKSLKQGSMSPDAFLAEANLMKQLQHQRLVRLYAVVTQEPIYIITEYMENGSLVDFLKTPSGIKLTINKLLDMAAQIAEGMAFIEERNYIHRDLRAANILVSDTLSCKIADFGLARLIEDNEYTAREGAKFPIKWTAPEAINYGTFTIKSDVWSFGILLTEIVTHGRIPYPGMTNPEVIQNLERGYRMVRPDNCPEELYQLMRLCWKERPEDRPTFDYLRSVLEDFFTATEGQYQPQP", "assay": "Upstate KinaseProfiler radio-enzymatic filter binding assay", "format": "biochemical", "conditions": "read-out: percentage inhibition Lck(h)", "procedure": "as §3"}, "PKD2(h)": {"molecular_target": "T8, PKD2(h) (Homo sapiens, UniProt Q9BZL6)", "T8 construct": "purchased Upstate", "T8 sequence (Q9BZL6 whole entry)": "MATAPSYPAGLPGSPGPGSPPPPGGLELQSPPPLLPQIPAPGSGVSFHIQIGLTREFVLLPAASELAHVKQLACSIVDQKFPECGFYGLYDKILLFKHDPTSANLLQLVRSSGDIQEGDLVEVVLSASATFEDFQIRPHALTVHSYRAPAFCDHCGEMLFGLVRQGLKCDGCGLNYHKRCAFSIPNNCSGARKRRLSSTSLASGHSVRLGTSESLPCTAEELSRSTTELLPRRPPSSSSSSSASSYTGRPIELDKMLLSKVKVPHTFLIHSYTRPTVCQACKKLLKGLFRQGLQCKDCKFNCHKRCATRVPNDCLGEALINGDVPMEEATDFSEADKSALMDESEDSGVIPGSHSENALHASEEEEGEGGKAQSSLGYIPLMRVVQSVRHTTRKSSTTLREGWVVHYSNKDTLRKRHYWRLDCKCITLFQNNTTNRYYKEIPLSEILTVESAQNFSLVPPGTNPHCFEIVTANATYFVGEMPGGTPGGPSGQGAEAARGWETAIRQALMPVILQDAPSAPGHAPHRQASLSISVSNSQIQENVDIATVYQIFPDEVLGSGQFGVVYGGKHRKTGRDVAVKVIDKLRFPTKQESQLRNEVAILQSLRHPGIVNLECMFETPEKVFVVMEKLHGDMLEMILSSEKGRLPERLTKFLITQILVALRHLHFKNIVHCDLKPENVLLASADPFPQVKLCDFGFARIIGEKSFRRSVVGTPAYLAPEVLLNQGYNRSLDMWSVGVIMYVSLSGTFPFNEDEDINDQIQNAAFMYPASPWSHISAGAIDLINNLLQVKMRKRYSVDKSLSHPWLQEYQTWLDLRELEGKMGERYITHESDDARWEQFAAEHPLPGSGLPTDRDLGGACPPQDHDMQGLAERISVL", "assay": "Upstate KinaseProfiler radio-enzymatic filter binding assay", "format": "biochemical", "conditions": "read-out: percentage inhibition PKD2(h)", "procedure": "as §3"}, "SAPK2p(h)": {"molecular_target": "T9, SAPK2p(h) (Homo sapiens, UniProt Q15759)", "T9 construct": "purchased Upstate", "T9 sequence (Q15759 whole entry)": "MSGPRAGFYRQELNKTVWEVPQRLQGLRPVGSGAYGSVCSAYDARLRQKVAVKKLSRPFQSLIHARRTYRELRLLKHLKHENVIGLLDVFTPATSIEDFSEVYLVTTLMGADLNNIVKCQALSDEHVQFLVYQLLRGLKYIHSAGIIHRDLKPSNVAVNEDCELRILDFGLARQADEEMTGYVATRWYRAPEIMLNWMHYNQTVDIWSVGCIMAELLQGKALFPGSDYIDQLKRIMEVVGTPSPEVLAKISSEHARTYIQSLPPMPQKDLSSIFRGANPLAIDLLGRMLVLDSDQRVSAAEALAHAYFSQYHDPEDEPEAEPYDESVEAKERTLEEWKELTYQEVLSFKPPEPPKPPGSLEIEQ", "assay": "Upstate KinaseProfiler radio-enzymatic filter binding assay", "format": "biochemical", "conditions": "read-out: percentage inhibition SAPK2p(h)", "procedure": "as §3"}, "p70S6K(h)": {"molecular_target": "T10, p70S6K(h) (Homo sapiens, UniProt P23443)", "T10 construct": "purchased Upstate", "T10 sequence (P23443 whole entry)": "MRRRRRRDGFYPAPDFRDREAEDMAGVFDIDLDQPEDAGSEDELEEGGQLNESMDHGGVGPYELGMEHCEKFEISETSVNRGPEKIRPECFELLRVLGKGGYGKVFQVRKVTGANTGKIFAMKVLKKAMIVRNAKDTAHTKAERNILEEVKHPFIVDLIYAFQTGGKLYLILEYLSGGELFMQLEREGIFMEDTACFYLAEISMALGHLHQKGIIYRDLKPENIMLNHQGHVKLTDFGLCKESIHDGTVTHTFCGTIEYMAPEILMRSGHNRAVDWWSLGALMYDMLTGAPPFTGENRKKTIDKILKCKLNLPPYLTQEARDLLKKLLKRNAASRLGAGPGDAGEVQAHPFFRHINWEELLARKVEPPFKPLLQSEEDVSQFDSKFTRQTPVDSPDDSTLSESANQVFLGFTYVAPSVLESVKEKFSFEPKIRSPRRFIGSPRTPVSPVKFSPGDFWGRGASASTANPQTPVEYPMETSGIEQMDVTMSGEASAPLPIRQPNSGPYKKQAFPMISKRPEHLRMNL", "assay": "Upstate KinaseProfiler radio-enzymatic filter binding assay", "format": "biochemical", "conditions": "read-out: percentage inhibition p70S6K(h)", "procedure": "as §3"}},
  "note": "pIC50: −log10 of the molar value.",
  "data": [
    {"smiles": "CCN1CCN(Cc2ccc(NC(=O)c3ccc(C)c(NC(=O)N(C)c4ncnc5[nH]ccc45)c3)cc2C(F)(F)F)CC1", "note": "[Example 4, N-[4-(4-Ethyl-piperazin-1-ylmethyl)-3-trifluoromethyl-phenyl]-4-methyl-3-[3-methyl-3-(7H-pyrrolo[2,3-d]pyrimidin-4-yl)-ureido]-benzamide]", "values": [
      {"measurement": "pIC50", "setting": "[1]", "result": "> 8.30"},
      {"measurement": "pIC50", "setting": "[2]", "result": "> 8.30"},
      {"measurement": "GI50", "setting": "PDGFR-β", "result": 3.8, "unit": "nM"},
      {"measurement": "inhibition at 10 µM", "setting": "BTK(h)", "result": 99, "unit": "%"},
      {"measurement": "inhibition at 10 µM", "setting": "IKKβ(h)", "result": 96, "unit": "%"},
      {"measurement": "inhibition at 10 µM", "setting": "JNK1α1(h)", "result": 81, "unit": "%"},
      {"measurement": "inhibition at 10 µM", "setting": "Lck(h)", "result": 100, "unit": "%"},
      {"measurement": "inhibition at 10 µM", "setting": "PKD2(h)", "result": 94, "unit": "%"},
      {"measurement": "inhibition at 10 µM", "setting": "SAPK2p(h)", "result": 85, "unit": "%"},
      {"measurement": "inhibition at 10 µM", "setting": "p70S6K(h)", "result": 94, "unit": "%"}
    ]}
  ]
}
